The values below come from patent US20230331739A1, “INDOLO HEPTAMYL OXIME ANALOG CRYSTAL AS PARP INHIBITOR AND METHOD FOR PREPARING SAME” (CHIA TAI TIANQING PHARMACEUTICAL GROUP CO., LTD., priority 2020, published 2023).

A short description of data set [1]: Protein binding rate in plasma (equilibrium dialysis), CD-1 mouse. Format: in vitro ADME. Conditions: CD-1 mouse plasma, 4 h dialysis. The method, then: (§1) The protein binding rates of the compound disclosed herein in plasma of human, CD-1 mice and SD rats were determined. 796 μL of blank plasma was taken from human, CD-1 mice or SD rats, and 4 μL of test compound working solution (400 μM) or warfarin working solution (400 μM) was added to achieve a final concentration of 2 μM of both the test compound and the warfarin in the plasma sample. The samples were mixed well. The final concentration of organic phase DMSO was 0.5%; 50 μL of test compound and warfarin plasma sample was pipetted into a sample receiving plate (in triplicate), and a corresponding volume of blank plasma or buffer was immediately added such that the final volume in each sample well was 100 μL. The volume ratio of plasma to dialysis buffer was 1:1. […] All samples were subjected to LC/MS analysis after protein precipitation, and the protein binding rates and the recovery rates were calculated by the following formulas: protein unbinding rate (%)=100× drug concentration passing through dialysis membrane/drug concentration not passing through dialysate; protein binding rate (%)=100−protein unbinding rate (%); recovery rate (%)=100×(drug concentration passing through dialysis membrane+drug concentration not passing through dialysate)/total drug concentration before dialysis.
Background: In equilibrium dialysis free small molecules cross a membrane that holds back macromolecules.

The nature of data set [2]: Body weight change in the MDA-MB-436 xenograft study. Format: in vivo. Conditions: three dose groups (12.5, 25, 50 mg/kg PO QD). The source says:
3. Daily observation of animals: the animals were monitored daily for health and death, and routine examinations include observation of the effect on tumor growth and the therapy on the daily performance of the animals, such as behavioral activities, food and water intake, change in body weight, appearance, or other abnormal conditions.
1. The body weights of the animals were used as a reference index for indirectly measuring the toxicity of the drug. In this model, no other morbidity or mortality occurred during the study.

Data set [3] is described as follows: Protein binding rate in plasma (equilibrium dialysis), human. It counts as in vitro ADME. To be noted: 4 h dialysis. As for the experimental part: as §1

For orientation: fraction unbound means the share of the substance not bound to proteins or other matrix. A low value points to little free substance. In the case of `C[C@]1(c2ccc(-c3[nH]c4cc(F)cc5c4c3CONC5=O)cc2)CCCN1` [Compound 1], the unbound share (fraction unbound) at 4 h, 2 μM in data set [1] was 0.104; in data set [3], 0.149. Moreover, the “change in body weight” value in data set [2] was “little change in body weight”.
